Source: PubChem BioAssay AID1259407 (Chemical Carcinogenesis Research Information System (CCRIS), 2018)
Active and inactive are the calls of the source. The rule behind the calls is not given here.

System: CCRIS mutagenicity, Ames/micronucleus/aberration tests
Test: CCRIS mutagenicity studies
[1] = Test System: AMES SALMONELLA TYPHIMURIUM, Strain/Indicator: TA98, Metabolic Activation: NONE, Method: STANDARD PLATE
[2] = Test System: AMES SALMONELLA TYPHIMURIUM, Strain/Indicator: TA98, Metabolic Activation: RAT, LIVER, S-9, AROCLOR 1254, Method: STANDARD PLATE
[3] = Test System: AMES SALMONELLA TYPHIMURIUM, Strain/Indicator: TA100, Metabolic Activation: NONE, Method: STANDARD PLATE
[4] = Test System: AMES SALMONELLA TYPHIMURIUM, Strain/Indicator: TA100, Metabolic Activation: RAT, LIVER, S-9, AROCLOR 1254, Method: STANDARD PLATE

`O=[N+]([O-])c1ccc2c3c1ccc1cccc(c13)[C@@H]1O[C@H]21` was tested, and the mutagenic call (Test System: AMES SALMONELLA TYPHIMURIUM, Strain/Indicator: TA98(1,8-DNP6), Metabolic Activation: RAT, LIVER, S-9, PHENOBARBITAL AND 5,6-BENZOFLAVONE, Method: PREINCUBATION) was “active; positive”, the mutagenic call (Test System: AMES SALMONELLA TYPHIMURIUM, Strain/Indicator: TA98(NR), Metabolic Activation: NONE, Method: PREINCUBATION) was “active; positive” and the mutagenic call (Test System: AMES SALMONELLA TYPHIMURIUM, Strain/Indicator: TA98, Metabolic Activation: NONE, Method: PREINCUBATION) was “active; positive”. The mutagenic call (Test System: AMES SALMONELLA TYPHIMURIUM, Strain/Indicator: TA98, Metabolic Activation: RAT, LIVER, S-9, PHENOBARBITAL AND 5,6-BENZOFLAVONE, Method: PREINCUBATION) was “active; positive”, the mutagenic call (Test System: AMES SALMONELLA TYPHIMURIUM, Strain/Indicator: TA100, Metabolic Activation: NONE, Method: PREINCUBATION) was “active; positive” and the mutagenic call (Test System: AMES SALMONELLA TYPHIMURIUM, Strain/Indicator: TA100, Metabolic Activation: RAT, LIVER, S-9, PHENOBARBITAL AND 5,6-BENZOFLAVONE, Method: PREINCUBATION) was “active; positive”. For the same compound, the mutagenic call (Test System: CHINESE HAMSTER OVARY, Strain/Indicator: CHO (HGPRT)/6-THIOGUANINE, Metabolic Activation: NONE, Method: STANDARD PLATE) was “active; positive”, the mutagenic call (Test System: CHINESE HAMSTER OVARY, Strain/Indicator: CHO (HGPRT)/6-THIOGUANINE, Metabolic Activation: RAT, LIVER, S-9, AROCLOR 1254, Method: STANDARD PLATE) was “active; positive” and the mutagenic call (Test System: UDS RODENT HEPATOCYTES, Strain/Indicator: THY INCORP, Metabolic Activation: NONE, Method: AUTORADIOGRAPHY) was “active; positive”.
`COc1c(Cl)ccc(Cl)c1C(=O)O` was tested, and the mutagenic call (Test System: AMES SALMONELLA TYPHIMURIUM, Strain/Indicator: TA97, Metabolic Activation: NONE, Method: STANDARD PLATE) was “inactive; negative”, the mutagenic call (Test System: AMES SALMONELLA TYPHIMURIUM, Strain/Indicator: TA97, Metabolic Activation: RAT, LIVER, S-9, AROCLOR 1254, Method: STANDARD PLATE) was “inactive; negative” and the mutagenic call [1] was “inactive; negative”. For the same compound, the mutagenic call [2] was “inactive; negative”, the mutagenic call [3] was “inactive; negative” and the mutagenic call [4] was “inactive; negative”. For the same compound, the mutagenic call (Test System: AMES SALMONELLA TYPHIMURIUM, Strain/Indicator: TA102, Metabolic Activation: NONE, Method: STANDARD PLATE) was “inactive; negative”, the mutagenic call (Test System: AMES SALMONELLA TYPHIMURIUM, Strain/Indicator: TA102, Metabolic Activation: RAT, LIVER, S-9, AROCLOR 1254, Method: STANDARD PLATE) was “inactive; negative” and the mutagenic call (Test System: UDS HUMAN LYMPHOCYTES, Strain/Indicator: THY INCORP (NON-S-PHASE), Metabolic Activation: NONE, Method: LIQUID SCINTILLATION COUNTING) was “inactive; negative”. The mutagenic call (Test System: UDS HUMAN LYMPHOCYTES, Strain/Indicator: THY INCORP (NON-S-PHASE), Metabolic Activation: RAT, LIVER, S-9, Method: LIQUID SCINTILLATION COUNTING) was “active; positive”.
With `O=C(CCc1ccc(O)cc1)c1c(O)cc(O)cc1O` the mutagenic call (Test System: AMES SALMONELLA TYPHIMURIUM, Strain/Indicator: TA98, Metabolic Activation: HAMSTER, LIVER, S-9, AROCLOR 1254, Method: STANDARD PLATE) was “inactive; negative”, the mutagenic call [1] was “inactive; negative” and the mutagenic call [2] was “inactive; negative”. For the same compound, the mutagenic call (Test System: AMES SALMONELLA TYPHIMURIUM, Strain/Indicator: TA100, Metabolic Activation: HAMSTER, LIVER, S-9, AROCLOR 1254, Method: STANDARD PLATE) was “inactive; negative”, the mutagenic call [3] was “inactive; negative” and the mutagenic call [4] was “inactive; negative”. For the same compound, the mutagenic call (Test System: AMES SALMONELLA TYPHIMURIUM, Strain/Indicator: TA1535, Metabolic Activation: HAMSTER, LIVER, S-9, AROCLOR 1254, Method: STANDARD PLATE) was “inactive; negative”, the mutagenic call (Test System: AMES SALMONELLA TYPHIMURIUM, Strain/Indicator: TA1535, Metabolic Activation: NONE, Method: STANDARD PLATE) was “inactive; negative” and the mutagenic call (Test System: AMES SALMONELLA TYPHIMURIUM, Strain/Indicator: TA1535, Metabolic Activation: RAT, LIVER, S-9, AROCLOR 1254, Method: STANDARD PLATE) was “inactive; negative”. For the same compound, the mutagenic call (Test System: AMES SALMONELLA TYPHIMURIUM, Strain/Indicator: TA1537, Metabolic Activation: HAMSTER, LIVER, S-9, AROCLOR 1254, Method: STANDARD PLATE) was “inactive; negative”, the mutagenic call (Test System: AMES SALMONELLA TYPHIMURIUM, Strain/Indicator: TA1537, Metabolic Activation: NONE, Method: STANDARD PLATE) was “inactive; negative” and the mutagenic call (Test System: AMES SALMONELLA TYPHIMURIUM, Strain/Indicator: TA1537, Metabolic Activation: RAT, LIVER, S-9, AROCLOR 1254, Method: STANDARD PLATE) was “inactive; negative”. For the same compound, the mutagenic call (Test System: AMES SALMONELLA TYPHIMURIUM, Strain/Indicator: TA1538, Metabolic Activation: HAMSTER, LIVER, S-9, AROCLOR 1254, Method: STANDARD PLATE) was “inactive; negative”, the mutagenic call (Test System: AMES SALMONELLA TYPHIMURIUM, Strain/Indicator: TA1538, Metabolic Activation: NONE, Method: STANDARD PLATE) was “inactive; negative” and the mutagenic call (Test System: AMES SALMONELLA TYPHIMURIUM, Strain/Indicator: TA1538, Metabolic Activation: RAT, LIVER, S-9, AROCLOR 1254, Method: STANDARD PLATE) was “inactive; negative”.
